In the series the test system is ND1 DNA in EVs from patients. The series is described as follows: mtDNA ND1 level (qPCR) in circulating EVs of patients before and after therapy. It is filed as in vivo, human. Particulars: FIG. 7d. As to the method:
(Panel a), Dot plot of nuclear DNA copy number quantification as determined by qPCR for GAPDH gene in circulating EVs isolated from fresh collected plasma (5-8 ml) of 8 healthy controls and 20 luminal breast cancer patients at different stage of their disease (Table 5). Each point corresponds to a patient sample. (Panel b), Schematic and gel electrophoresis of whole mtDNA genome amplified in several patient derived circulating EV-DNA resulting from 46 overlapping PCR amplicons to cover all the mtDNA genome. (Panel c), mtDNA ND1 level change (Ct qPCR value from 2 ng of total EV-DNA) determined in the same patient (two different examples are reported) following time and therapy response (PR, partial response; Stable Disease; POD, progression of disease); (Panel d) mtDNA ND1 level change (Ct qPCR value from 2 ng of total EV-DNA) determined in two different patients (#1, #2) before and after a certain therapy. Data are reported as error bars, mean±s.d. of n=3 independent experiments. […]
DNA and cDNAs were amplified by quantitative PCR (qPCR) using the Applied Biosystem Viia™ 7 Real-Time PCR System in the Power SYBR® Green PCR Master Mix Buffer. […] For analysis, ΔΔct method was applied and fold change was calculated (2^−ΔΔct). […]

Consider `COc1cccc2c1C(=O)c1c(O)c3c(c(O)c1C2=O)C[C@@](O)(C(=O)CO)C[C@@H]3O[C@H]1C[C@H](N)[C@H](O)[C@H](C)O1` [Doxorubicin], for which the “ND1 DNA level in EVs from patients receiving the therapy” value is “higher”.

The values above are taken from patent US20190382850A1, “METHOD FOR IDENTIFYING MITOCHONDRIAL DNA IN EXTRACELLULAR VESICLES AND TREATMENT OF MTDNA-RELATED DISORDERS AND CANCER” (Memorial Sloan-Kettering Cancer Center, priority 2017, published 2019).
